According to patent US5571789A (Haemopep Pharma GmbH, priority 1992, dated 1996):
“Also recorded” adds a separate entry of the source.

Legend:
[1] = system: broncho-constriction caused by inhalation of acetylcholin; experiment: Forced expiration (spirography, flow-volume curve) at the end of inhalatory acetylcholin provocation in rats under i.v. infusion; type: in vivo, wistar rats
Protocol: (§1) A total of 33 female 12 week wistar rats having body weights of 300 g served as test animals. The design of the study was that of a simple blind approach. On each of the experiment days, animals of the control group and of the verum group were measured.
Employing a test animal body plethysmograph allowed for continuous measurement of the respiration volume (VT), respiration frequency (f), respiration minute volume (MV), resistance of the lung (RL), dynamic compliance (Cdyn), respiration flow (F) and transpulmonary pressure (PTP) of a narcotized, intubated and spontaneously breathing rat. Circulation monitoring was accomplished by EKG recording with evaluation of the heart frequency (HR).
After steady state conditions were attained the initial values of spontaneous respiration were measured first. […] In each case evaluations of the continuously determined spontaneous parameters were made 5 minutes after the beginning of the infusion before an inhalatory acetylcholin (ACh) provocation was made (basic values before Ach provocation).
By means of an injectomar device the test animals were infused 0.5 ml of solution continuously over a total of 10 minutes.
(§2) 5 minutes after the beginning of the infusion each rat was provoked by inhalation of a defined amount of an ACh aerosol. Evaluation of the spontaneous respiration parameters for each animal was performed after a total inhalation volume of 600 ml (values at the end of ACh provocation).
To complete the experiments, a forced expiration was performed on each animal in hyperventilation induced apnea. Flow-volume and flow-time (spirography) relations were recorded. The flow-volume curve allows for the evaluation of peak expiratory flow (=PEF), maximum mid-expiratory flow (=MMEF), and flow at 75, 50, 25, and 10% of the forced vital capacity (e.g. FEF 75). Spirography of rats primarily yields the forced vital capacity (FVC) and the expired volume after 0.05, 0.10, 0.20 and 0.40 seconds as an absolute value in ml (e.g. FEV 0.05) or in percent of FVC (e.g. FEV 0.05%).

[2] = system: spontaneous respiration parameters (F, PTP, VT, Cdyn, RL, f, MV); experiment: Spontaneous respiration parameters by body plethysmograph in narcotized rats; type: in vivo, wistar rats; conditions: for Effect of infusion on spontaneous respiration parameters after ACh provocation: after total inhalation of 600 ml ACh, groups B-D versus control
Protocol: as §1
After steady state conditions were attained the initial values of spontaneous respiration were measured first. Thereafter, a randomized infusion of placebo, urodilatin, or ANP was started. In each case evaluations of the continuously determined spontaneous parameters were made 5 minutes after the beginning of the infusion before an inhalatory acetylcholin (ACh) provocation was made (basic values before Ach provocation).
as §2

[3] = cited from earlier work
[4] = system: bronchial asthma (lung function parameters); experiment: Lung function in patients with bronchial asthma under 40 minute i.v. infusion; type: in vivo, human; conditions: for FEV1.0 versus pre values and 20 ng/kg/min group: after 10 minutes of infusion; for PEF, MEF75, MEF50 and MEF25: during infusion; for VCmax versus pre values: during infusion and until 10 minutes thereafter
Text: The anamnesis gave no evidence for an exacerbation of the disease in the last 8 weeks. No nicotine abuse was known from any of the patients. Additional inclusion criteria were defined by an expiratory one-second-capacity (FEV1.0) of 40 to 70% of the maximum vital capacity (VCmax) before administration of a broncho-spasmolytic agent, an effect of a β2 -sympathomimetic on FEV1.0 of ≥15%, no alteration of the maintenance antiobstructive treatment and no administration of oral corticoids in the last 4 weeks before the beginning of the study. Within 8 hours before the beginning of the examinations no inhalatory application of a β2 -sympathomimetic must have occurred anymore.

[5] = group B, 40 ng/kg/min i.v. infusion, end of ACh provocation
[6] = group B, 40 ng/kg/min, 5 minutes after beginning of infusion, before ACh

Q: What does the source list for CC[C@H](C)[C@@H]1NC(=O)[C@H](CCCNC(=N)N)NC(=O)[C@H](CC(=O)O)NC(=O)[C@H](CCSC)NC(=O)[C@H](CCCNC(=N)N)NC(=O)CNC(=O)CNC(=O)[C@H](Cc2ccccc2)NC(=O)[C@@H](NC(=O)[C@H](CO)NC(=O)[C@H](CO)NC(=O)[C@H](CCCNC(=N)N)NC(=O)[C@H](CCCNC(=N)N)NC(=O)[C@H](CC(C)C)NC(=O)[C@@H](N)CO)CSSC[C@@H](C(=O)N[C@@H](CC(N)=O)C(=O)N[C@@H](CO)C(=O)N[C@@H](Cc2ccccc2)C(=O)N[C@@H](CCCNC(=N)N)C(=O)N[C@@H](Cc2ccc(O)cc2)C(=O)O)NC(=O)CNC(=O)[C@H](CC(C)C)NC(=O)CNC(=O)[C@H](CO)NC(=O)[C@H](CCC(N)=O)NC(=O)[C@H](C)NC(=O)CNC1=O [ANP, atrial natriuretic peptide, reference compound]?
A: Effect on the ACh induced changes of the parameters of forced expiration ([1]; 70.305 ng/kg/min, equimolar with 80 ng/kg/min urodilatin): less clearly seen; Flow-volume curve parameters versus control group A ([1]; group D, 70.305 ng/kg/min i.v. infusion (equimolar to group C), end of ACh provocation): significant increase only of PEF and FEF 75; Effect of infusion on spontaneous respiration parameters after ACh provocation [2]: without a significant effect; Hypotensive effect ([3]; in vivo, iv): hypotensive effect observed

Q: With CC(C)(C)NCC(O)c1ccc(O)c(CO)c1 (stereo not shown) [Salbutamol, reference compound] as the compound, how does the FEV1.0 ([4]; 1.25 mg Salbutamol inhaled, all three groups) read?
A: significant increase in FEV1.0

Q: And the “Flow-volume parameters (PEF, MEF75, MEF50, MEF25)” value ([4]; Salbutamol inhalation, all dosage groups)?
A: significant effect

Q: What does the source list for urodilatin?
A: Protective effect at 40 ng/kg/min versus ANP in a twofold higher dose on a molar basis ([1]; 40 ng/kg/min versus 70.305 ng/kg/min ANP): clearly more effective than ANP; also recorded: more obvious protective effect than ANP; Protection from broncho-constriction (improved forced expiration) ([1]; animal experiments, parenteral administration): obvious protection; Effect compared with equimolar doses of ANP ([1]; broncho-constriction by inhaled acetylcholin, parenteral administration): more than two times greater; FEV 0.1% (expired volume after 0.1 seconds based on FVC) versus control group A [1, 5]: significant improvement; PEF, MMEF, FEF 75, FEF 50 and FEF 25 of the forced expiratory flow-volume curve versus control group A [1, 5]: clear improvement; PEF, MMEF, FEF 75, FEF 50 and FEF 25 of the forced expiratory flow-volume curve versus control group A ([1]; group C, 80 ng/kg/min i.v. infusion, end of ACh provocation): clear improvement; Effectiveness and duration of action versus ANP (flow-volume curves, FIGS. 1 to 3) ([1]; groups B and C (40, 80 ng/kg/min) versus group D (70.3 ng/kg/min ANP)): more effective and acts for a longer period of time; Other FEV and FEV % values, comparison of groups A-D ([1]; i.v. infusion 40 or 80 ng/kg/min, end of ACh provocation): not significantly distinct; Effect on the ACh induced changes of the parameters of forced expiration relative to control group A ([1]; infusion of 40 and 80 ng/kg/min): clearly protective effects; Effect of infusion on spontaneous respiration parameters after ACh provocation [2]: without a significant effect; Cdyn versus initial values [2, 6]: small, significant decrease; PTP and RL versus initial values [2, 6]: slight, significant increase; Respiration frequency versus initial values ([2]; group C, 80 ng/kg/min, 5 minutes after beginning of infusion, before ACh): slight, significant decrease; FEV1.0 versus pre values ([4]; 20 ng/kg/min, any time during or after the infusion): did not show any significant effect; Flow-volume parameters ([4]; 20 ng/kg/min, p<0.05 after 10 and 30 minutes of infusion): increase of the MEF75 measurement value alone; FEV1.0 versus initial values 30 minutes after completion of the infusion ([4]; 40 ng/kg/min): still significantly different from the initial values; Maxima of PEF, MEF75, MEF50, MEF25 under infusion versus results after Salbutamol inhalation ([4]; 40 ng/kg/min): not significantly different from the measurement results after Salbutamol inhalation, except for MEF50; Time of maximum FEV1.0 values ([4]; 40 ng/kg/min infusion): 30 min; FEV1.0 versus pre values and 20 ng/kg/min group ([4]; 40 ng/kg/min): significant increase; PEF, MEF75, MEF50 and MEF25 ([4]; 40 ng/kg/min): increased during the infusion; VCmax versus pre values ([4]; 40 ng/kg/min): significant increase; Maxima of PEF, MEF75, MEF50, MEF25 under infusion versus results after Salbutamol inhalation ([4]; 60 ng/kg/min): not significantly different; Maximum FEV1.0 effect versus values after inhalation of Salbutamol ([4]; 60 ng/kg/min): no longer significantly different; Time of maximum effect on FEV1.0 ([4]; 60 ng/kg/min infusion): 20 min; FEV1.0 versus pre values and 20 ng/kg/min group ([4]; 60 ng/kg/min): significant increase; PEF, MEF75, MEF50 and MEF25 ([4]; 60 ng/kg/min): increased during the infusion; VCmax versus pre values ([4]; 60 ng/kg/min): significant increase; VCmax maxima versus results after Salbutamol inhalation ([4]; 40 and 60 ng/kg/min): did not show any significant differences; MEF50, difference between 40 and 60 ng/kg/min ([4]; after 20 minutes of infusion): significant difference; Broncho-dilatation ([4]; intravenous infusion of 40 and 60 ng/kg/min over 40 minutes, clinically stable bronchial asthma): did not result in a significant broncho-dilatation; Glomerular filtration rate, excretion of water, sodium and chloride ([3]; intravenous application): increase the glomerular filtration rate, the excretion of water, sodium and chloride
